This note sets out measurements from PubChem BioAssay (NCI).

Some test systems named below: OVCAR-4 ovarian; SF-295 CNS; UO-31 renal; DU-145 prostate; LOX IMVI melanoma; OVCAR-8 ovarian; SK-MEL-2 melanoma; UACC-62 melanoma; SF-539 CNS; T-47D breast.
Assay in all cases: inhibition of tumour cell growth, NCI panel, 48 h

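Test compounds were applied to cells in 96-well plates for 48 hours at 5 doses. Here, GI50 denotes the concentration required for 50% inhibition of growth. Definition used: TGI = concentration required for complete inhibition of growth.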

For the compound `OCCCCC#Cc1ccccc1C#Cc1ccccc1F`, the GI50 is more than 100 µM with OVCAR-4 ovarian; 21.6 µM in the assay on SF-295 CNS; 20.7 µM in the assay on UO-31 renal; 35.7 µM in the assay on DU-145 prostate; 17.4 µM in the assay on LOX IMVI melanoma; 20.8 µM in the assay on OVCAR-8 ovarian. The GI50 was 23.9 µM in the assay on SK-MEL-2 melanoma, 16.5 µM with UACC-62 melanoma, 22 µM in the assay with SF-539 CNS and 16.1 µM in the assay with T-47D breast. The TGI with OVCAR-4 ovarian is more than 100 µM; in the assay with SF-295 CNS it was 42.7 µM; in the assay with UO-31 renal it was 46.5 µM; in the assay on DU-145 prostate, more than 100 µM; in the assay on LOX IMVI melanoma, 31.6 µM; with OVCAR-8 ovarian, 47.9 µM. For the same compound, the TGI with SK-MEL-2 melanoma came to 52.5 µM; in the assay on UACC-62 melanoma, 32.6 µM; in the assay on SF-539 CNS it was 48.4 µM; with T-47D breast it was 42.6 µM.

On to `CCCCCCCCCCCCCCCC(=O)OCC1OC(n2cnc3c(=S)nc(N)[nH]c32)C(OC(=O)CCCCCCCCCCCCCCC)C1OC(=O)CCCCCCCCCCCCCCC` (stereo not given), for which the GI50 in the assay on OVCAR-4 ovarian is more than 19.5 µM; in the assay on SF-295 CNS, 1.63 µM; with UO-31 renal it was 9.49 µM; in the assay with DU-145 prostate, 1.98 µM; in the assay with LOX IMVI melanoma, 1.54 µM; with OVCAR-8 ovarian, 3.42 µM. The GI50 was 4.39 µM in the assay on SK-MEL-2 melanoma, 3.35 µM in the assay with UACC-62 melanoma, 6.95 µM with SF-539 CNS and 2 µM in the assay with T-47D breast. Moreover, the TGI in the assay on OVCAR-4 ovarian was more than 50 µM; in the assay with SF-295 CNS, 24.4 µM; in the assay on UO-31 renal, more than 50 µM; with DU-145 prostate it was more than 50 µM; in the assay on LOX IMVI melanoma, more than 50 µM; in the assay on OVCAR-8 ovarian it was more than 50 µM. Further, the TGI in the assay with SK-MEL-2 melanoma is 28.4 µM; in the assay with UACC-62 melanoma, more than 21.5 µM; with SF-539 CNS it was more than 50 µM; with T-47D breast it was more than 50 µM.

As to `CC/C=C\C/C=C\C[C@H](O)C/C=C1/C(=O)C=C[C@H]1C/C=C\CCC(=O)OC`, the GI50 was more than 8.25 µM in the assay with OVCAR-4 ovarian; more than 8.25 µM in the assay on SF-295 CNS; 7.58 µM with UO-31 renal; 4.95 µM with DU-145 prostate; 1.36 µM in the assay with LOX IMVI melanoma; 2.51 µM in the assay on OVCAR-8 ovarian. Besides, the GI50 with SK-MEL-2 melanoma is more than 8.25 µM; in the assay on UACC-62 melanoma it was 1.79 µM; in the assay with SF-539 CNS, 2.82 µM; in the assay on T-47D breast it was 2.93 µM. The TGI is more than 8.25 µM with OVCAR-4 ovarian; more than 8.25 µM with SF-295 CNS; more than 8.25 µM in the assay on UO-31 renal; more than 8.25 µM in the assay with DU-145 prostate; 2.85 µM with LOX IMVI melanoma; more than 8.25 µM in the assay on OVCAR-8 ovarian. For the same compound, the TGI was more than 8.25 µM in the assay on SK-MEL-2 melanoma, 7.16 µM in the assay with UACC-62 melanoma, more than 8.25 µM with SF-539 CNS and more than 8.25 µM in the assay with T-47D breast.
